# Test results reported in US7495104B2, “Quinoline or quinazoline derivatives inhibiting auto-phosphorylation of fibroblast growth factor receptors” (Kirin Beer Kabushiki Kaisha, priority 2001, dated 2009).
# Structures can show the parent of a compound that is named as a salt.
# Target: Bek (Homo sapiens, UniProt P21802)
# Assay: Inhibitory activity against Bek-autophosphorylation using ELISA method in OCUM-2MD3 cells
# Format: cell-based
# Conditions: 1 hr with compound, read-out: IC50 (concentration necessary for inhibiting 50% of Bek-phosphorylation)
# Protocol: Human scirrhus stomach cancer cells OCUM-2MD3 (kindly provided by Dr. Kosei Hirakawa, Osaka City University) were cultured in an RPMI medium containing 10% fetal calf serum (purchased from ICN) within a 5% carbon dioxide incubator until 50 to 90% confluent. The harvested cells were seeded onto 96-well flat-bottom plate in RPMI containing 0.1% fetal calf serum at 3.5×10^4 cells per well, followed by cultivation at 37° C. overnight. A solution of the test compound in dimethyl sulfoxide was added to each well, and the cultivation was continued at 37° C. for additional one hr. The medium was removed, and 50 μl of lysis buffer (20 mM HEPES (pH 7.4), 150 mM NaCl, 0.2% Triton X-100, 10% glycerol, 5 mM sodium orthovanadylate, 5 mM disodium ethylenediaminetetraacetate, and 2 mM Na4P2O7) was then added thereto. The mixture was shaken at 4° C. for 2 hr to prepare cell extracts.
# Separately, phosphate buffered saline (50 μl, pH 7.4) containing 5 μg/ml of anti-phospho-tyrosine antibody (PY20; purchased from Transduction Laboratories) was added to a microplate for ELISA (Maxisorp; purchased from NUNC), followed by standing at 4° C. overnight to form a solid phase on the wells. After washing of the plate, 300 μl of a blocking solution was added, followed by standing at room temperature for 2 hr to perform blocking. After washing, the whole quantity of the cell extracts was transferred to the wells, and the plate was then allowed to stand at 4° C. overnight. After washing, an anti-Bek antibody (Bek (C-17), purchased from Santa Cruz Biotechnology) or Anti-Human K-sam Rabbit IgG Affinity Purity (purchased from IBL Co., Ltd.) was allowed to react at room temperature for one hr, and, after washing, a peroxidase-labeled anti-rabbit Ig antibody (purchased from Amersham) was allowed to react at room temperature for one hr. After washing, a chromophoric substrate for peroxidase (purchased from Sumitomo Bakelite Co., Ltd.) was added thereto to initiate a reaction. After a suitable level of color development, a reaction termination solution was added to stop the reaction, and the absorbance at 450 nm was measured with a microplate reader. The Bek-phosphorylation activity for each well was determined by presuming the absorbance without the addition of the medicament to be 100% Bek-phosphorylation activity and the absorbance with the addition of a large excess of a positive control (N-{4-[(6,7-dimethoxy-4-quinolyl)oxy]phenyl}-N′-(3,3-dimethylbutyl)urea, 1000 nM) to be 0% Bek-phosphorylation activity. The concentration of the test compound was varied on several levels, the Bek-phosphorylation inhibitory activity was determined for each case, and the concentration of the test compound necessary for inhibiting 50% of Bek-phosphorylation (IC50) was calculated.
# Bek, sequence (P21802 431-767 limits assumed): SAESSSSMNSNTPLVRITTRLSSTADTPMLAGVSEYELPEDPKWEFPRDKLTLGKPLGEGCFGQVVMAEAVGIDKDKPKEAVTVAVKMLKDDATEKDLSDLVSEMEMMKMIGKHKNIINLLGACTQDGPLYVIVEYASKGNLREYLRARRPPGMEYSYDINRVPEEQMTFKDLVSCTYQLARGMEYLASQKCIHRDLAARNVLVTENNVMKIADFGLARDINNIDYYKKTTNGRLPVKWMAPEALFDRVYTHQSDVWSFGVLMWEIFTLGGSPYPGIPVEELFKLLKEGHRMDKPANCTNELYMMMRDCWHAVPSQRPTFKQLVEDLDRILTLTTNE
row,SMILES,IC50
1,"COc1cc2c(Oc3ccc(Nc4ccc(C(C)(C)C)cc4)cc3)ccnc2cc1OCC(O)CN1CCCN(C)CC1 (stereo not shown) [Compound 65, 1-{4-[4-(4-Tert-butylphenylamino)phenoxy]-6-methoxyquinolin-7-yloxy}-3-(4-methyl-[1,4]diazepin-1-yl)propan-2-ol]",184 nM
2,"CCNCC(O)COc1cc2nccc(Oc3ccc(Nc4ccc(C(C)(C)C)cc4)cc3)c2cc1OC (stereo not shown) [Compound 66, 1-{4-[4-(4-Tert-butylphenylamino)phenoxy]-6-methoxyquinolin-7-yloxy}-3-ethylaminopropan-2-ol]",199 nM
3,"COc1cc2c(Oc3ccc(Nc4ccc(C(C)(C)C)cc4)cc3)ccnc2cc1OCC(O)CN(C)C (stereo not shown) [Compound 67, 1-{4-[4-(4-Tert-butylphenylamino)phenoxy]-6-methoxyquinolin-7-yloxy}-3-dimethylaminopropan-2-ol]",189 nM
4,"COc1cc2c(Oc3ccc(Nc4ccc(C(C)(C)C)cc4)cc3)ccnc2cc1OCCN1C[C@@H](C)O[C@@H](C)C1 [Compound 68, (4-Tert-butylphenyl)-(4-{7-[2-(2,6-dimethylmorpholin-4-yl)ethoxy]-6-methoxyquinolin-4-yloxy}phenyl)amine]",248 nM
5,"COc1cc2c(Oc3ccc(Nc4ccc(C(C)(C)C)cc4)cc3)ccnc2cc1OCCCN1C[C@@H](C)O[C@@H](C)C1 [Compound 69, (4-Tert-butylphenyl)-(4-{7-[3-(2,6-dimethylmorpholin-4-yl)propoxy]-6-methoxyquinolin-4-yloxy}phenyl)amine]",248 nM
6,"COc1cc2c(Oc3ccc(Nc4ccc(C(C)(C)C)cc4)cc3)ccnc2cc1OC[C@H](O)CN1CCOCC1 [Compound 70, (R)-1-{4-[4-(4-Tert-butylphenylamino)phenoxy]-6-methoxyquinolin-7-yloxy}-3-morpholin-4-ylpropan-2-ol]",68.5 nM
7,"COc1cc2c(Oc3ccc(Nc4ccc(C(C)(C)C)cc4)cc3)ccnc2cc1OC[C@@H](O)CN1CCOCC1 [Compound 71, (s)-1-{4-[4-(4-Tert-butylphenylamino)phenoxy]-6-methoxyquinolin-7-yloxy}-3-morpholin-4-ylpropan-2-ol]",61.1 nM
8,"COc1cc2ncnc(Oc3ccc(Nc4ccc(C(C)C)cc4)cc3)c2cc1OC [Compound 72, [4-(6,7-Dimethoxyquinazolin-4-yloxy)phenyl]-(4-isopropyl-phenyl)amine]",836 nM
9,"COc1cc2nccc(Oc3ccc(Nc4ccsc4)cc3)c2cc1OC [Compound 73, [4-(6,7-Dimethoxyquinolin-4-yloxy)phenyl]thiophen-3-ylamine]",3510 nM
10,"COc1cc2ncnc(Oc3ccc(Nc4ccc(C(C)(C)C)cc4)cc3)c2cc1OC [Compound 74, (4-Tert-butylphenyl)-[4-(6,7-dimethoxyquinazolin-4-yloxy)-phenyl]amine]",521 nM
11,"COc1cc2nccc(Oc3ccc(Nc4nc(C)c(C)s4)cc3)c2cc1OC [Compound 75, [4-(6,7-Dimethoxyquinolin-4-yloxy)phenyl]-(4,5-dimethylthiazol-2-yl)amine]",5190 nM
12,"COc1cc2nccc(Oc3ccc(Nc4nn(-c5ccccc5)c(=O)o4)cc3)c2cc1OC [Compound 76, 5-[4-(6,7-Dimethoxyquinolin-4-yloxy)phenylamino]-3-phenyl-3H-[1,3,4]oxazol-2-one]",7560 nM
13,"COc1cc2nccc(Oc3ccc(NC4CCC(C(C)(C)C)CC4)cc3)c2cc1OC (stereo not shown) [Compound 77, (4-Tert-butylcyclohexyl)-[4-(6,7-dimethoxyquinolin-4-yloxy)phenyl]amine]",3450 nM
14,"COc1cc2c(Oc3ccc(Nc4ccc(C(C)(C)C)cc4)cc3)ncnc2cc1OCCN1CCOCC1 [Compound 78, (4-Tert-butylphenyl)-{4-[6-methoxy-7-(2-morpholin-4-ylethoxy)quinazolin-4-yloxy]phenyl}amine]",274 nM
15,"COc1cc2c(Oc3ccc(Nc4ccc(C(C)(C)C)cc4)c(F)c3)ccnc2cc1OCCN1CCOCC1 [Compound 79, (4-Tert-butylphenyl)-{2-fluoro-4-[6-methoxy-7-(2-morpholin-4-ylethoxy)quinolin-4-yloxy]phenyl}amine]",159 nM
16,"COc1cc2c(Oc3ccc(Nc4ccc(C(C)(C)C)cc4)cc3)ccnc2cc1OCCC(C)N1CCOCC1 (stereo not shown) [Compound 80, (4-Tert-butylphenyl)-{4-[6-methoxy-7-(3-morpholin-4-ylbutoxy)-quinolin-4-yloxy]phenyl}amine]",151 nM

row,SMILES,IC50
1,"COc1cc2c(Oc3ccc(Nc4ccc(C(C)(C)C)cc4)cc3)ccnc2cc1OCCN1CCC(CO)CC1 [Compound 81, [1-(2-{4-[4-(4-Tert-butylphenylamino)phenoxy]-6-methoxy-quinolin-7-yloxy}ethyl)piperidin-4-yl]methanol]",10.1 nM
2,"COc1cc2c(Oc3ccc(Nc4ccc(C(C)(C)C)cc4)cc3)ccnc2cc1OCCN1CCC(O)CC1 [Compound 82, 1-(2-{4-[4-(4-Tert-butylphenylamino)phenoxy]-6-methoxy-quinolin-7-yloxy}ethyl)piperidin-4-ol]",70.1 nM
3,"COc1cc2c(Oc3ccc(NC(=O)NCCC(C)(C)C)cc3)ccnc2cc1OCCCN1CCC(O)CC1 [Compound 96, 1-(3,3-Dimethyl-butyl)-3-(4-{7-[3-(4-hydroxy-piperidin-1-yl)-propoxy]-6-methoxy-quinolin-4-yloxy}-phenyl)-urea]",< 10 nM
4,"COc1cc2nccc(Oc3ccc(NC(=O)NCCC(C)(C)C)cc3)c2cc1OC [Compound 101, 1-[4-(6,7-Dimethoxy-quinolin-4-yloxy)-phenyl]-3-(3,3-dimethyl-butyl)-urea]",< 10 nM
5,"COc1cc2nccc(Oc3ccc(NC(=O)NCCC(C)(C)C)cc3F)c2cc1OC [Compound 102, 1-[4-(6,7-Dimethoxy-quinolin-4-yloxy)-3-fluorophenyl]-3-(3,3-dimethyl-butyl)-urea]",27.8 nM
6,"COc1cc2nccc(Oc3ccc(NC(=O)NCCC(C)(C)C)c(Cl)c3)c2cc1OC [Compound 103, 1-[2-Chloro-4-(6,7-dimethoxyquinolin-4-yloxy)-phenyl]-3-(3,3-dimethyl-butyl)-urea]",29.8 nM
7,"COc1cc2nccc(Oc3ccc(NC(=O)NC4CC(C)CC(C)(C)C4)cc3)c2cc1OC (stereo not shown) [Compound 105, 1-[4-(6,7-Dimethoxy-quinolin-4-yloxy)-phenyl]-3-(3,3,5-trimethyl-cyclohexyl)-urea]",30.6 nM
8,"COc1cc2nccc(Oc3ccc(NC(=O)NC4CC(C)CC(C)(C)C4)c(F)c3)c2cc1OC (stereo not shown) [Compound 106, 1-[4-(6,7-Dimethoxy-quinolin-4-yloxy)-2-fluoro-phenyl]-3-(3,3,5-trimethyl-cyclohexyl)-urea]",19.7 nM
9,"COc1cc2nccc(Oc3ccc(NC(=O)NC4CC(C)CC(C)(C)C4)c(Cl)c3)c2cc1OC (stereo not shown) [Compound 107, 1-[2-Chloro-4-(6,7-dimethoxy-quinolin-4-yloxy)-phenyl]-3-(3,3,5-trimethyl-cyclohexyl)-urea]",< 10 nM
10,"COc1cc2nccc(Oc3ccc(NC(=O)NC4CCCC(C)(C)C4)cc3)c2cc1OC (stereo not shown) [Compound 108, 1-[4-(6,7-Dimethoxy-quinolin-4-yloxy)-phenyl]-3-(3,3-dimethyl-cyclohexyl)-urea]",< 10 nM
11,"COc1cc2nccc(Oc3ccc(NC(=O)NC4CCCC(C)(C)C4)c(F)c3)c2cc1OC (stereo not shown) [Compound 109, 1-[4-(6,7-Dimethoxy-quinolin-4-yloxy)-2-fluoro-phenyl]-3-(3,3-dimethyl-cyclohexyl)-urea]",< 10 nM
12,"COc1cc2nccc(Oc3ccc(NC(=O)NC4CCCC(C)(C)C4)c(Cl)c3)c2cc1OC (stereo not shown) [Compound 110, 1-[2-Chloro-4-(6,7-dimethoxy-quinolin-4-yloxy)-phenyl]-3-(3,3-dimethyl-cyclohexyl)-urea]",< 10 nM
13,"COc1cc2nccc(Oc3ccc(NC(=O)NCCC(C)(C)C)c(F)c3)c2cc1OC [Compound 111, 1-[4-(6,7-Dimethoxy-quinolin-4-yloxy)-2-fluoro-phenyl]-3-(3,3-dimethyl-butyl)-urea]",< 10 nM
14,"COc1cc2c(Oc3ccc(NC(=O)NCCC(C)(C)C)cc3)ccnc2cc1OCCN1CCOCC1 [Compound 112, 1-(3,3-Dimethyl-butyl)-3-{4-[6-methoxy-7-(2-morpholin-4-yl-ethoxy)-quinolin-4-yloxy]-phenyl}-urea hydrochloride]",52.1 nM
15,"COc1cc2c(Oc3ccc(NC(=O)NCCC(C)(C)C)cc3)ccnc2cc1OCCN1CCN(C)CC1 [Compound 113, 1-(3,3-Dimethyl-butyl)-3-(4-{6-methoxy-7-[2-(4-methyl-piperazin-1-yl)-ethoxy]-quinolin-4-yloxy}-phenyl)-urea hydrochloride]",10 nM
